Test results: ChEMBL document CHEMBL3994622, “Design and synthesis of new RAF kinase-inhibiting antiproliferative quinoline derivatives. Part 2: Diarylurea derivatives” (Eur J Med Chem, 2017)

How the values were obtained:
NCI-H460 = assay: Growth inhibition of human NCI-H460 cells assessed as cell growth at 10 uM incubated for 48 hrs by sulforhodamine B assay relative to control; assay type: functional; conditions: NCI-H460, 48 h, read-out: Activity
HCT-15 [1] = assay: Growth inhibition of human HCT15 cells assessed as cell growth at 100 uM incubated for 48 hrs by sulforhodamine B assay relative to control; assay type: functional; conditions: HCT-15, 48 h, read-out: Activity
MDA-MB-468 = assay: Growth inhibition of human MDA-MB-468 cells assessed as cell growth at 0.1 uM incubated for 48 hrs by sulforhodamine B assay relative to control; assay type: functional; conditions: MDA-MB-468, 48 h, read-out: Activity
A498 = assay: Growth inhibition of human A498 cells assessed as cell growth at 50 uM incubated for 48 hrs by sulforhodamine B assay relative to control; assay type: functional; conditions: A498, 48 h, read-out: Activity
M14 = assay: Growth inhibition of human M14 cells assessed as cell growth at 5 uM incubated for 48 hrs by sulforhodamine B assay relative to control; assay type: functional; conditions: M14, 48 h, read-out: Activity
IGROV-1 [2] = assay: Growth inhibition of human IGROV1 cells assessed as cell growth at 50 uM incubated for 48 hrs by sulforhodamine B assay relative to control; assay type: functional; conditions: IGROV-1, 48 h, read-out: Activity
HCT-15 [3] = assay: Growth inhibition of human HCT15 cells assessed as cell growth at 5 uM incubated for 48 hrs by sulforhodamine B assay relative to control; assay type: functional; conditions: HCT-15, 48 h, read-out: Activity
IGROV-1 [4] = assay: Growth inhibition of human IGROV1 cells assessed as cell growth at 5 uM incubated for 48 hrs by sulforhodamine B assay relative to control; assay type: functional; conditions: IGROV-1, 48 h, read-out: Activity
NCI-H522 = assay: Growth inhibition of human NCI-H522 cells assessed as cell growth at 0.5 uM incubated for 48 hrs by sulforhodamine B assay relative to control; assay type: functional; conditions: NCI-H522, 48 h, read-out: Activity
UACC-257 = assay: Growth inhibition of human UACC257 cells assessed as cell growth at 0.05 uM incubated for 48 hrs by sulforhodamine B assay relative to control; assay type: functional; conditions: UACC-257, 48 h, read-out: Activity
HCC 2998 [5] = assay: Growth inhibition of human HCC2998 cells assessed as cell growth at 50 uM incubated for 48 hrs by sulforhodamine B assay relative to control; assay type: functional; conditions: HCC 2998, 48 h, read-out: Activity
OVCAR-4 = assay: Growth inhibition of human OVCAR4 cells assessed as cell growth at 0.05 uM incubated for 48 hrs by sulforhodamine B assay relative to control; assay type: functional; conditions: OVCAR-4, 48 h, read-out: Activity
HCC 2998 [6] = assay: Growth inhibition of human HCC2998 cells assessed as cell growth at 5 uM incubated for 48 hrs by sulforhodamine B assay relative to control; assay type: functional; conditions: HCC 2998, 48 h, read-out: Activity
EKVX [7] = assay: Growth inhibition of human EKVX cells assessed as cell growth at 50 uM incubated for 48 hrs by sulforhodamine B assay relative to control; assay type: functional; conditions: read-out: Activity
NCI-H226 = assay: Growth inhibition of human NCI-H226 cells assessed as cell growth at 50 uM incubated for 48 hrs by sulforhodamine B assay relative to control; assay type: functional; conditions: NCI-H226, 48 h, read-out: Activity
CAKI-1 [8] = assay: Growth inhibition of human Caki1 cells assessed as cell growth at 50 uM incubated for 48 hrs by sulforhodamine B assay relative to control; assay type: functional; conditions: CAKI-1, 48 h, read-out: Activity
KM12 = assay: Growth inhibition of human KM12 cells assessed as cell growth at 50 uM incubated for 48 hrs by sulforhodamine B assay relative to control; assay type: functional; conditions: KM12, 48 h, read-out: Activity
IGROV-1 [9] = assay: Growth inhibition of human IGROV1 cells assessed as cell growth at 0.005 uM incubated for 48 hrs by sulforhodamine B assay relative to control; assay type: functional; conditions: IGROV-1, 48 h, read-out: Activity
DU-145 = assay: Growth inhibition of human DU145 cells assessed as cell growth at 0.005 uM incubated for 48 hrs by sulforhodamine B assay relative to control; assay type: functional; conditions: DU-145, 48 h, read-out: Activity
COLO 205 = assay: Growth inhibition of human COLO205 cells assessed as cell growth at 50 uM incubated for 48 hrs by sulforhodamine B assay relative to control; assay type: functional; conditions: COLO 205, 48 h, read-out: Activity
SK-OV-3 = assay: Growth inhibition of human SKOV3 cells assessed as cell growth at 50 uM incubated for 48 hrs by sulforhodamine B assay relative to control; assay type: functional; conditions: SK-OV-3, 48 h, read-out: Activity
SK-MEL-5 = assay: Growth inhibition of human SK-MEL-5 cells assessed as cell growth at 5 uM incubated for 48 hrs by sulforhodamine B assay relative to control; assay type: functional; conditions: SK-MEL-5, 48 h, read-out: Activity
U-251 = assay: Growth inhibition of human U251 cells assessed as cell growth at 50 uM incubated for 48 hrs by sulforhodamine B assay relative to control; assay type: functional; conditions: U-251, 48 h, read-out: Activity
CAKI-1 [10] = assay: Growth inhibition of human Caki1 cells assessed as cell growth at 0.05 uM incubated for 48 hrs by sulforhodamine B assay relative to control; assay type: functional; conditions: CAKI-1, 48 h, read-out: Activity
ACHN = assay: Growth inhibition of human ACHN cells assessed as cell growth at 0.5 uM incubated for 48 hrs by sulforhodamine B assay relative to control; assay type: functional; conditions: read-out: Activity
SF-539 = assay: Growth inhibition of human SF539 cells assessed as cell growth at 5 uM incubated for 48 hrs by sulforhodamine B assay relative to control; assay type: functional; conditions: SF-539, 48 h, read-out: Activity
TK-10 = assay: Growth inhibition of human TK10 cells assessed as cell growth at 0.5 uM incubated for 48 hrs by sulforhodamine B assay relative to control; assay type: functional; conditions: TK-10, 48 h, read-out: Activity
LOX IMVI [11] = assay: Growth inhibition of human LOXIMVI cells assessed as cell growth at 0.5 uM incubated for 48 hrs by sulforhodamine B assay relative to control; assay type: functional; conditions: read-out: Activity
NCI/ADR-RES = assay: Growth inhibition of human NCI/ADR-RES cells assessed as cell growth at 0.05 uM incubated for 48 hrs by sulforhodamine B assay relative to control; assay type: functional; conditions: read-out: Activity
LOX IMVI [12] = assay: Growth inhibition of human LOXIMVI cells assessed as cell growth at 0.003 uM incubated for 48 hrs by sulforhodamine B assay relative to control; assay type: functional; conditions: read-out: Activity
EKVX [13] = assay: Growth inhibition of human EKVX cells assessed as cell growth at 0.3 uM incubated for 48 hrs by sulforhodamine B assay relative to control; assay type: functional; conditions: read-out: Activity
HOP-62 = assay: Growth inhibition of human HOP62 cells assessed as cell growth at 30 uM incubated for 48 hrs by sulforhodamine B assay relative to control; assay type: functional; conditions: HOP-62, 48 h, read-out: Activity
[14] = molecular target: RAC-alpha serine/threonine-protein kinase (Homo sapiens) (UniProt P31749); assay: Inhibition of human AKT1 at 10 uM using KGSGSGRPRTSSFAEG as substrate in presence of [33P]ATP by Hotspot assay relative to control
RAC-alpha serine/threonine-protein kinase (Homo sapiens), sequence (P31749 whole entry): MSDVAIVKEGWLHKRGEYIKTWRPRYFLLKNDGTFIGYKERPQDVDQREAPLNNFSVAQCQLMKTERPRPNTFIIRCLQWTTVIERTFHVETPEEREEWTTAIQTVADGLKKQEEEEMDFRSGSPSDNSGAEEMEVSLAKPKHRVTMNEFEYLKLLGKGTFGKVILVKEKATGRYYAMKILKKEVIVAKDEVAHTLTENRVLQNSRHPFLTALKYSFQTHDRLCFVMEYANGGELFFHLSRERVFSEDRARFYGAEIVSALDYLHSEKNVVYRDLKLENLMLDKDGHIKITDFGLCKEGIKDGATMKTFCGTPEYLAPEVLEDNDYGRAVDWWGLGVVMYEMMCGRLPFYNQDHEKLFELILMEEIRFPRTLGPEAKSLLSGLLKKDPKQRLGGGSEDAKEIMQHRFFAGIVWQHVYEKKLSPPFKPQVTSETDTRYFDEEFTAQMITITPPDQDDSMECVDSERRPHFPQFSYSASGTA

[15] = molecular target: Dual specificity mitogen-activated protein kinase kinase 1 (Homo sapiens) (UniProt Q02750); assay: Inhibition of human MEK1 at 10 uM using ERK2 as substrate in presence of [33P]ATP by Hotspot assay relative to control
Dual specificity mitogen-activated protein kinase kinase 1 (Homo sapiens), sequence (Q02750 whole entry): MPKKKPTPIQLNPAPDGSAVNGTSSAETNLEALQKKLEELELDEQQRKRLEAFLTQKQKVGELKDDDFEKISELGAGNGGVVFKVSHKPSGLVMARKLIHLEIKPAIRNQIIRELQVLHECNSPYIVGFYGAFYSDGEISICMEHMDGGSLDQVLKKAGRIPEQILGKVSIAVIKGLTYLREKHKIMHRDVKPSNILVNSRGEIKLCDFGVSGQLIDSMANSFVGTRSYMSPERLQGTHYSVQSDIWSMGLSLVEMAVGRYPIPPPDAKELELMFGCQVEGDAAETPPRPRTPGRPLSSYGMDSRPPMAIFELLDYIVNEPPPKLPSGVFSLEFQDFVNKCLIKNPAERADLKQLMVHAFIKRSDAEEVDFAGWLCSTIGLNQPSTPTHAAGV

## COc1cc2cc(Oc3ccc(NC(=O)Nc4cc(C(F)(F)F)cc(C(F)(F)F)c4)cc3)c(C)nc2cc1OC
NCI-H460
  growth at 10 µM: -64%
HCT-15 [1]
  growth at 100 µM: -88%
MDA-MB-468
  growth at 0.1 µM: 104%

## COc1cc2cc(Oc3ccc(NC(=O)Nc4cccc(C(F)(F)F)c4)cc3)c(C)nc2cc1OC
A498
  growth at 50 µM: -65%
M14
  growth at 5 µM: 14%
IGROV-1 [2]
  growth at 50 µM: -14%
HCT-15 [3]
  growth at 5 µM: 18%
IGROV-1 [4]
  growth at 5 µM: 31%
NCI-H522
  growth at 0.5 µM: 90%
UACC-257
  growth at 0.05 µM: 94%
HCC 2998 [5]
  growth at 50 µM: 4%
OVCAR-4
  growth at 0.05 µM: 95%
HCC 2998 [6]
  growth at 5 µM: 26%
EKVX [7]
  growth at 50 µM: -48%
NCI-H226
  growth at 50 µM: -67%
CAKI-1 [8]
  growth at 50 µM: -51%
KM12
  growth at 50 µM: -59%
IGROV-1 [9]
  growth at 0.005 µM: 101%
DU-145
  growth at 0.005 µM: 103%
COLO 205
  growth at 50 µM: -88%
SK-OV-3
  growth at 50 µM: -37%
SK-MEL-5
  growth at 5 µM: -35%
U-251
  growth at 50 µM: -99%
CAKI-1 [10]
  growth at 0.05 µM: 93%
ACHN
  growth at 0.5 µM: 95%
SF-539
  growth at 5 µM: 26%
TK-10
  growth at 0.5 µM: 108%
LOX IMVI [11]
  growth at 0.5 µM: 97%
NCI/ADR-RES
  growth at 0.05 µM: 101%

## COc1cc2cc(Oc3ccc(NC(=O)Nc4ccc(Cl)c(C(F)(F)F)c4)cc3)c(C)nc2cc1OC
LOX IMVI [12]
  growth at 0.003 µM: 100%
EKVX [13]
  growth at 0.3 µM: 94%
HOP-62
  growth at 30 µM: -96%
[14]
  inhibition: 0.06%
[15]
  inhibition: -0.258%
